Earlier results as cited in patent US20160102058A1, “FLUORO-PERHEXILINE COMPOUNDS AND THEIR THERAPEUTIC USE” (THE UNIVERSITY COURT OF THE UNIVERSITY OF ABERDEEN, priority 2013, published 2016).

Conditions: cited from earlier work

Structure (SMILES): C1CCC(C(CC2CCCCN2)C2CCCCC2)CC1 (centres unmarked) [Perhexiline, 2-(2,2-dicyclohexylethyl)piperidine]
- plasma perhexiline to metabolite ratio, patients without toxicological side-effects (patients who showed no side-effects): 0.3
- plasma perhexiline to metabolite ratio, patients with side-effects (patients who showed side-effects): 2.8
